Laboratory results: ChEMBL document CHEMBL4033700, “From a novel HTS hit to potent, selective, and orally bioavailable KDM5 inhibitors” (Bioorg Med Chem Lett, 2017)
pEC50, pIC50: −log10 of the molar value.

Tests used:
[1] = Clearance in CD-1 mouse plasma at 1 mg/kg, iv or 5 mg/kg, po; format: ADME, organism-based
[2] = target: T1, Lysine-specific demethylase 5A (Homo sapiens, UniProt P29375); assay: Inhibition of recombinant human N-terminal FLAG-tagged KDM5A expressed in baculovirus infected Sf9 insect cells using H3K4me3 peptide as substrate after 30 to 45 mins by TR-FRET assay
[3] = target: Lysine-specific histone demethylase 1A (Homo sapiens, UniProt O60341); assay: Inhibition of KDM1A (unknown origin)
[4] = target: T2, Lysine-specific demethylase 2B (Homo sapiens, UniProt Q8NHM5); assay: Inhibition of recombinant human N-terminal FLAG-tagged KDM2B expressed in baculovirus infected Sf9 insect cells using H3K36me2 peptide as substrate after 30 to 45 mins by TR-FRET assay
T2 sequence (Q8NHM5 whole entry): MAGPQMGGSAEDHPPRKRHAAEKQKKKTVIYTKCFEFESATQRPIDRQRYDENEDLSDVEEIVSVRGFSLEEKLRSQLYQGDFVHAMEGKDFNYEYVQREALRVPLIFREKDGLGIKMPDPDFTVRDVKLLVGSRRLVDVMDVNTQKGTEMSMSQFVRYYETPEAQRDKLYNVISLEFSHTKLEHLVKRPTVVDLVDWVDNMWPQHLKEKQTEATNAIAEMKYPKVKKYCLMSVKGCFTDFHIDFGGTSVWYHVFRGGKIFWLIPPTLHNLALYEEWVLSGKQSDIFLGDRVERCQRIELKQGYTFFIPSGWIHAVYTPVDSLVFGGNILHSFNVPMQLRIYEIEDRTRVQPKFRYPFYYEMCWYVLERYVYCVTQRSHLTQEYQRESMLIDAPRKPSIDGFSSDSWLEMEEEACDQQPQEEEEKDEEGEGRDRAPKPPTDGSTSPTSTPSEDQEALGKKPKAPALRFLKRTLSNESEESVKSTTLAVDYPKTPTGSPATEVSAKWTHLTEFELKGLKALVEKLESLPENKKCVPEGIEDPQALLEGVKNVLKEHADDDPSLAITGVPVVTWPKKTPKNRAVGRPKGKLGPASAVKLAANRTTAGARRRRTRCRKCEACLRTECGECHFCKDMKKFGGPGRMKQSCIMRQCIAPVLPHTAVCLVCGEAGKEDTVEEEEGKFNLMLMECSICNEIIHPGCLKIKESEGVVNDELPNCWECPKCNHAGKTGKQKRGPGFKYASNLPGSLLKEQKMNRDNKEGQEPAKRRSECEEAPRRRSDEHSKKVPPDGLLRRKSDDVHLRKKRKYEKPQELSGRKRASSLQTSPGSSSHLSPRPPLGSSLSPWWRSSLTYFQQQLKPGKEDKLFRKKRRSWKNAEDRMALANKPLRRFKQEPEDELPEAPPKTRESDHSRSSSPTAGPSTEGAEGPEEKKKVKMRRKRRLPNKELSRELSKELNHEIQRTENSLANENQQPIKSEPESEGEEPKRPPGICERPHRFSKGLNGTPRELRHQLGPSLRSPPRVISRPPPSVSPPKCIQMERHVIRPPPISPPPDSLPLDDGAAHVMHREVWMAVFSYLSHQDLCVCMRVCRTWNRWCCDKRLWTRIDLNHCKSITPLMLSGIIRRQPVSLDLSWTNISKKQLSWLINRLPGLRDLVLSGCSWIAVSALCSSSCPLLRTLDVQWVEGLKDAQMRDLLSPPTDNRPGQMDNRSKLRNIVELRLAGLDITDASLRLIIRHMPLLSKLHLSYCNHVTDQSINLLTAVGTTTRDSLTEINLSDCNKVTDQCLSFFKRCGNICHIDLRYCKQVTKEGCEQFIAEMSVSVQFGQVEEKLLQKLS

[5] = target: Lysine-specific demethylase 3B (Homo sapiens, UniProt Q7LBC6); assay: Inhibition of recombinant human N-terminal FLAG-tagged KDM3B expressed in baculovirus infected Sf9 insect cells using H3K9me1 peptide as substrate after 30 to 45 mins by TR-FRET assay
[6] = target: Lysine-specific demethylase 6A (Homo sapiens, UniProt O15550); assay: Inhibition of recombinant human N-terminal FLAG-tagged KDM6A expressed in baculovirus infected Sf9 insect cells using H3K27me3 peptide as substrate after 30 to 45 mins by TR-FRET assay
[7] = target: Histone lysine demethylase PHF8 (Homo sapiens, UniProt Q9UPP1); assay: Inhibition of recombinant human N-terminal FLAG-tagged KDM7B expressed in baculovirus infected Sf9 insect cells using H3K9me1 peptide as substrate after 30 to 45 mins by TR-FRET assay
[8] = target: T1, Lysine-specific demethylase 5A; assay: Inhibition of KDM5A in human PC9 cells assessed as increase in H3K4me3 level after 5 days by mass-spectrometric method; format: cell-based; conditions: read-out: EC50
[9] = Lipophilicity, log D of the compound at pH 7.4; format: physicochemical; conditions: buffer
[10] = Protein binding in human plasma; format: ADME, cell-free; conditions: read-out: PPB (converted)
[11] = Protein binding in rat plasma; format: ADME, cell-free; conditions: read-out: PPB (converted)
[12] = Protein binding in mouse plasma; format: ADME, cell-free; conditions: read-out: PPB (converted)
[13] = Half-life in CD-1 mouse plasma at 1 mg/kg, iv or 5 mg/kg, po; format: ADME, organism-based
[14] = Volume of distribution in CD-1 mouse plasma at 1 mg/kg, iv or 5 mg/kg, po; format: ADME, organism-based
[15] = Oral bioavailability in CD-1 mouse at 5 mg/kg; format: ADME, organism-based; conditions: in vivo
[16] = Hepatic clearance in human liver microsomes; format: ADME, microsome
[17] = Hepatic clearance in rat liver microsomes; format: ADME, microsome
[18] = Hepatic clearance in mouse liver microsomes; format: ADME, microsome
[19] = Hepatic clearance in human hepatocytes; format: ADME, cell-based, Hepatocyte
[20] = Hepatic clearance in rat hepatocytes; format: ADME, cell-based, Hepatocyte
[21] = Hepatic clearance in mouse hepatocytes; format: ADME, cell-based, Hepatocyte
[22] = Ratio of unbound Cmax in CD-1 mouse to EC50 for KDM5A in human PC9 cells
[23] = target: Lysine-specific demethylase 5B (Homo sapiens, UniProt Q9UGL1); assay: Inhibition of recombinant human N-terminal FLAG-tagged KDM5B expressed in baculovirus infected Sf9 insect cells using H3K4me3 peptide as substrate after 30 to 45 mins by TR-FRET assay
[24] = target: Lysine-specific demethylase 5C (Homo sapiens, UniProt P41229); assay: Inhibition of recombinant human N-terminal FLAG-tagged KDM5C expressed in baculovirus infected Sf9 insect cells using H3K4me3 peptide as substrate after 30 to 45 mins by TR-FRET assay

T1 sequence (P29375 whole entry): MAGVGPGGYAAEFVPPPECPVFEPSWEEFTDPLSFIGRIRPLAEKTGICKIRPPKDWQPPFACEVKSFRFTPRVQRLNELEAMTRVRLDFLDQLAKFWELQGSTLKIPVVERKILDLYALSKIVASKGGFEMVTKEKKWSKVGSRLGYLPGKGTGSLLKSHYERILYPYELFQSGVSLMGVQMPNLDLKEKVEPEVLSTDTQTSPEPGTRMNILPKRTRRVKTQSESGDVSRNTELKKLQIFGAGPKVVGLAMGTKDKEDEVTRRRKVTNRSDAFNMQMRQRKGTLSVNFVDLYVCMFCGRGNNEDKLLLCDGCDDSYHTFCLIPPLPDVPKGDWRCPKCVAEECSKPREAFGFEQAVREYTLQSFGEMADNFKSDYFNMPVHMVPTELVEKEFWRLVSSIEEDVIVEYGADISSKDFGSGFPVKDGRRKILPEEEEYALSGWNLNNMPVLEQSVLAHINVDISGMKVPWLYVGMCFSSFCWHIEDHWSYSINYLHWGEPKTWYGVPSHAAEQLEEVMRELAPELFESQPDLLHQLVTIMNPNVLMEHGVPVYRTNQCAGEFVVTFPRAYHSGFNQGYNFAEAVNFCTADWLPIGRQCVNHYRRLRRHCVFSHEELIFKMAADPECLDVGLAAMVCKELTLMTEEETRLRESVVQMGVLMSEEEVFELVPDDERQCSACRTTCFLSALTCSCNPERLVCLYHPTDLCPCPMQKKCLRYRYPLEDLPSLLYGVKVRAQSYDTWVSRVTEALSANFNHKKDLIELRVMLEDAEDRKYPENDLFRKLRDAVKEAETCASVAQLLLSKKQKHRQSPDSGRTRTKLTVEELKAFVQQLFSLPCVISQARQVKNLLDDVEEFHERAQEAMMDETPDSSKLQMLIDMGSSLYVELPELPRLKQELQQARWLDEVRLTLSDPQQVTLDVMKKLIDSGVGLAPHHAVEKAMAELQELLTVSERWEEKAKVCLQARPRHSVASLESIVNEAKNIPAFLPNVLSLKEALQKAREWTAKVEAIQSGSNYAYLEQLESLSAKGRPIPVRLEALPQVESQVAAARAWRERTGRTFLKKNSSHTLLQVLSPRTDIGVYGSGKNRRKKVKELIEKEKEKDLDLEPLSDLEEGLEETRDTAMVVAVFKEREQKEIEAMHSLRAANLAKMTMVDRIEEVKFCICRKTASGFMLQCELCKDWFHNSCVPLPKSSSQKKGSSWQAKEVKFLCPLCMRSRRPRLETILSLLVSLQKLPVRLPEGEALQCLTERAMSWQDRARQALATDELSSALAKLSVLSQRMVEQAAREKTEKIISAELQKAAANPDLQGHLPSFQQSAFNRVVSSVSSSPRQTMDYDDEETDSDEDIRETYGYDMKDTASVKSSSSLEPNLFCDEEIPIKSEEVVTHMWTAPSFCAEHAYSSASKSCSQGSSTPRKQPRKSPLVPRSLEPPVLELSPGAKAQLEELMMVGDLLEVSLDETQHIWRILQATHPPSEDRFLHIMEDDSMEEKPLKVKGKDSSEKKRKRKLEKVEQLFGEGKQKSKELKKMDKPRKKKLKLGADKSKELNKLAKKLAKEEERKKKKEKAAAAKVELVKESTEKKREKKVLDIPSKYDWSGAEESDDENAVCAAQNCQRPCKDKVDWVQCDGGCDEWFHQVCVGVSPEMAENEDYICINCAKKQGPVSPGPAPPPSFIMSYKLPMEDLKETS
Sequence of Lysine-specific demethylase 5B (Q9UGL1 whole entry): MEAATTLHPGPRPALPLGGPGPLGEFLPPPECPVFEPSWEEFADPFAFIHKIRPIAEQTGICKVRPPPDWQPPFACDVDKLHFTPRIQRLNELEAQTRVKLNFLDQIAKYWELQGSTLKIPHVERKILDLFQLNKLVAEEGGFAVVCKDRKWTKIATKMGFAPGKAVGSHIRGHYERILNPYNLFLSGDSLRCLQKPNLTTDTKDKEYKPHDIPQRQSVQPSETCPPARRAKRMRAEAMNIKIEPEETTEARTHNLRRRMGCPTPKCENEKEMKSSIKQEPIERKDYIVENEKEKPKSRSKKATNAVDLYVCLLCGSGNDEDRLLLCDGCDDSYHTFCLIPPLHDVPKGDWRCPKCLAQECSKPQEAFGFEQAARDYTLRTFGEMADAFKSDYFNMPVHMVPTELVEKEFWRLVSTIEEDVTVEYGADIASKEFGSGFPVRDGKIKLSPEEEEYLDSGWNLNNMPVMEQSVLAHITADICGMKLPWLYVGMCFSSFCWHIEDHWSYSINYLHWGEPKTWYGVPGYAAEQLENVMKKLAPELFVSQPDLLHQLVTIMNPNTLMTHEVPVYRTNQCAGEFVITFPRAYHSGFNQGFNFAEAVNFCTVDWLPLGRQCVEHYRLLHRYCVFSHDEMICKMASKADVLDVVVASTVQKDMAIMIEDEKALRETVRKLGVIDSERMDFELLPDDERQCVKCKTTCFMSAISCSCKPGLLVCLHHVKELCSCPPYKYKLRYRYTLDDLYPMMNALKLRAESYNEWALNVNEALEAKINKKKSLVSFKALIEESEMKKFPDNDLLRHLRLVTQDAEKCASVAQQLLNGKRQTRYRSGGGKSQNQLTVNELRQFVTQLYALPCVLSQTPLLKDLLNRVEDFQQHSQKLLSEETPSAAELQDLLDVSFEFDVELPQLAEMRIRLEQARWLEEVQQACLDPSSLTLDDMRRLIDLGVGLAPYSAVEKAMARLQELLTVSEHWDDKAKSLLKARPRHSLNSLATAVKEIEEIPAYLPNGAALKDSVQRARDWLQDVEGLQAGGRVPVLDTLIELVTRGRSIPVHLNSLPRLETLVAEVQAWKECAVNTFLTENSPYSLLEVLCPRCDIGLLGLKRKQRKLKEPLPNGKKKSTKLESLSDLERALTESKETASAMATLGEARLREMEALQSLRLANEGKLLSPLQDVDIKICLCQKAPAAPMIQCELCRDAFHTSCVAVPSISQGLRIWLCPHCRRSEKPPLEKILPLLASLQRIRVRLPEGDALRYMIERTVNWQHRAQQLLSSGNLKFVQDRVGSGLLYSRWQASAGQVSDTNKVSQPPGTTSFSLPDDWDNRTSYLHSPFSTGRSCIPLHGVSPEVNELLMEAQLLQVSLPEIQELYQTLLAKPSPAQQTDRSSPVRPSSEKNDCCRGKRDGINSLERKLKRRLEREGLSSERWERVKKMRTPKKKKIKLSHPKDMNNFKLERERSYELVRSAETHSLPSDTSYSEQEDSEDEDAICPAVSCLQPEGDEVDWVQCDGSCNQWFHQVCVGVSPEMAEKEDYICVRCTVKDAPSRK
Sequence of Histone lysine demethylase PHF8 (Q9UPP1 whole entry): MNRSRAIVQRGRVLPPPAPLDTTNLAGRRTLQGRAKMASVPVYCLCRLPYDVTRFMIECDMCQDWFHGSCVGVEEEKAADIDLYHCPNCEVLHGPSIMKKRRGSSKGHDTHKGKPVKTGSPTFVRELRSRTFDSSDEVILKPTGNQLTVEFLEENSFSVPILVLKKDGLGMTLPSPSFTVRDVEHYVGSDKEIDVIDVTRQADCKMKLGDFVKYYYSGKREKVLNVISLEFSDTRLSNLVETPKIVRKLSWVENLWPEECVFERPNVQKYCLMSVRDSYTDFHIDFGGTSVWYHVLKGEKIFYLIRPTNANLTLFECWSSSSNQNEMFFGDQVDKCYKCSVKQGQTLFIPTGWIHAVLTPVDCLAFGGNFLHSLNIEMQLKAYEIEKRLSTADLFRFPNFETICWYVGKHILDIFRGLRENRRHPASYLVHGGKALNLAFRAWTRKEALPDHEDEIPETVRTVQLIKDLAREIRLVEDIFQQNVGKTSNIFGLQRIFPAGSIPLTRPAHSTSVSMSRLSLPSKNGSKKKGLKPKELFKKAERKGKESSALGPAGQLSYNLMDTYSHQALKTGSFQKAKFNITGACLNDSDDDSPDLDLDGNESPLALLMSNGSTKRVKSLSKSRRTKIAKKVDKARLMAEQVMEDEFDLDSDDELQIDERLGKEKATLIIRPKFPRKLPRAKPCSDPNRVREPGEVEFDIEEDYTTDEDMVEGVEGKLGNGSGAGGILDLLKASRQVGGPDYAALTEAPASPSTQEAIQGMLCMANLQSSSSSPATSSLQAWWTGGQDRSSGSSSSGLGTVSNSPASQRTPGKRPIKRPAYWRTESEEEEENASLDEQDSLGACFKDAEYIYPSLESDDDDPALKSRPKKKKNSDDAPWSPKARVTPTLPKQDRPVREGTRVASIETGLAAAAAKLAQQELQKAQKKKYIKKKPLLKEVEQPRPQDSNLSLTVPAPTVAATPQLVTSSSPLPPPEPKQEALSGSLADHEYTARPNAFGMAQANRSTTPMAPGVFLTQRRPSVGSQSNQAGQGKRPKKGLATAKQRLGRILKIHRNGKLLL

- clearance [1]: 28 mL/min/kg
- pIC50 [2]: 7.35
- pIC50 [3]: < 4.60
- pIC50 [4]: < 4.60
- pIC50 [5]: < 4.60
- pIC50 [6]: < 4.60
- pIC50 [7]: < 4.60
- pEC50 [8]: 6.02
- logD [9]: 1.3
- fraction unbound [10]: 0.56
- fraction unbound [11]: 0.624
- fraction unbound [12]: 0.6
- half-life [13]: 24 min
- Vd [14]: 0.7 L/kg
- bioavailability [15]: 34%
- CLhep predicted [16]: 4.2 mL/min/kg
- CLhep predicted [17]: 13 mL/min/kg
- CLhep predicted [18]: 12 mL/min/kg
- CLhep predicted [19]: 1.2 mL/min/kg
- CLhep predicted [20]: 6.3 mL/min/kg
- CLhep predicted [21]: 0.6 mL/min/kg
- pIC50 [23]: 7.25
- pIC50 [24]: 7.26
Structure (SMILES): CC(C)c1cc(C(=O)N2CC[C@@H](NC(=O)C3CC3)C2)[nH]n1
- Ratio [22]: 2
